Test results reported in US7906506B2, “Substituted chiral fused [1,2] imidazo [4,5-c] ring compounds and methods” (3M Innovative Properties Company, priority 2006, dated 2011).

melting point | SMILES
218 to 223 °C | CC1OC[C@H](C)n2c1nc1c(N)nc3ccccc3c12 (stereo partly drawn) [Example 1, (11S)-8,11-Dimethyl-10,11-dihydro-8H-[1,4]oxazino[4′,3′:1,2]imidazo[4,5-c]quinolin-6-amine]
243 to 268 °C | CCCC1OC[C@H](C)n2c1nc1c(N)nc3ccccc3c12 (stereo partly drawn) [Example 2, (11S)-1-Methyl-8-propyl-10,11-dihydro-8H-[1,4]oxazino[4′,3′:1,2]imidazo[4,5-c]quinolin-6-amine]
